Holding throughout (assay type): in vivo
Assay [1] relates to Amaranthus retroflexus. The assay is described as follows: Herbicidal activity, soil surface spray after planting (Example 4). The note with it: 3 cm stem cutting, one node, soil surface spray on date of planting, four weeks after treatment.
Method: A 30 cm to 40 cm stem cutting of sugar cane is placed on a wet soil, and germination is stimulated. The stem cutting from which a bud has grown to about 1 cm is selected, and the length of the stem cutting is adjusted to be 3 cm so that the stem cutting has one node. A soil is packed into a plastic pot, and seeds of Amaranthus retroflexus are seeded thereon. The stem cutting of sugar cane is planted in the soil packed in the pot at a depth of 2 cm. […] Thereafter, the pot for a test is placed in a greenhouse.
Assay [2] concerns Amaranthus retroflexus. The assay can be described thus: Herbicidal activity, spray above weed one week before planting (Example 5). The note with it: sprayed above weed three weeks after seeding, 3 cm stem cutting planted one week after treatment, four weeks after treatment.
Method: (§1) A soil is packed into a plastic pot, and seeds of Amaranthus retroflexus are seeded thereon. Thereafter, the pot is placed in a greenhouse, and the weed is grown.
A 30 cm to 40 cm stem cutting of sugar cane is placed on a wet soil, and germination is stimulated. The stem cutting from which a bud has been grown to about 1 cm is selected, and the length of the stem cutting is adjusted to be 3 cm so that the stem cutting has one node.
(§2) The pot for a test is placed in a greenhouse.
For assay [3], the system named is Amaranthus retroflexus. The assay can be described thus: Herbicidal activity, soil surface spray, insecticide-treated stem cutting (Example 6). To be noted: 3 cm stem cutting treated with clothianidin, thiamethoxiam, imidacloprid, dinotefuran, nitenpyram, acetamiprid or thiacloprid, four weeks after treatment.
Method: A 30 cm to 40 cm stem cutting of sugar cane is placed on a wet soil, and germination is stimulated. The stem cutting from which a bud has grown to about 1 cm is selected, and the length of the stem cutting is adjusted to be 3 cm so that the stem cutting has one node. Clothianidin, thiamethoxiam, imidacloprid, dinotefuran, nitenpyram, acetamiprid or thiacloprid is adhered to the stem cutting. A soil is packed into a plastic pot, and seeds of Amaranthus retroflexus are seeded thereon. The stem cutting of sugar cane treated with clothianidin, thiamethoxiam, imidacloprid, dinotefuran, nitenpyram, acetamiprid or thiacloprid is planted in the soil packed into the pot at a depth of 2 cm. […] Thereafter, the pot for a test is placed in a greenhouse.
Assay [4] has as its system Amaranthus retroflexus. The assay can be described thus: Herbicidal activity, spray above weed before planting, insecticide-treated stem cutting (Example 7). The note with it: sprayed above weed, 3 cm stem cutting treated with clothianidin, thiamethoxiam, imidacloprid, dinotefuran, nitenpyram, acetamiprid or thiacloprid planted one week after treatment, four weeks after treatment.
Method: as §1
A 30 cm to 40 cm stem cutting of sugar cane is placed on a wet soil, and germination is stimulated. The stem cutting from which a bud has grown to about 1 cm is selected, and the length of the stem cutting is adjusted to be 3 cm so that the stem cutting has one node. Clothianidin, thiamethoxiam, imidacloprid, dinotefuran, nitenpyram, acetamiprid or thiacloprid is adhered to the stem cutting.
as §2

Assay [5] relates to Amaranthus retroflexus. The assay is described as follows: Herbicidal activity, soil surface spray, strobilurin-treated stem cutting (Example 8). The note with it: 3 cm stem cutting treated with kresoxim-methyl, azoxystrobin or another listed strobilurin fungicide, four weeks after treatment.
From the text: A 30 cm to 40 cm stem cutting of sugar cane is placed on a wet soil, and germination is stimulated. The stem cutting from which a bud has grown to about 1 cm is selected, and the length of the stem cutting is adjusted to be 3 cm so that the stem cutting has one node. Kresoxim-methyl, azoxystrobin, trifloxystrobin, fluoxastrobin, picoxystrobin, pyraclostrobin, dimoxystrobin, pyribencarb, metominostrobin, orysastrobin, enestrobin, pyraoxystrobin or pyrametostrobin is adhered to the stem cutting. A soil is packed into a plastic pot, and seeds of Amaranthus retroflexus are seeded thereon. The stem cutting of sugar cane treated with kresoxim-methyl, azoxystrobin, trifloxystrobin, fluoxastrobin, picoxystrobin, pyraclostrobin, dimoxystrobin, pyribencarb, metominostrobin, orysastrobin, enestrobin, pyraoxystrobin or pyrametostrobin is planted in the soil packed into the pot at a depth of 2 cm. […] Thereafter, the pot for a test is placed in a greenhouse.
Assay [6] relates to Amaranthus retroflexus. The assay is described as follows: Herbicidal activity, spray above weed before planting, strobilurin-treated stem cutting (Example 9). The note with it: sprayed above weed, 3 cm stem cutting treated with kresoxim-methyl, azoxystrobin or another listed strobilurin fungicide planted one week after treatment, four weeks after treatment.
Method: as §1
A 30 cm to 40 cm stem cutting of sugar cane is placed on a wet soil, and germination is stimulated. The stem cutting from which a bud has grown to about 1 cm is selected, and the length of the stem cutting is adjusted to be 3 cm so that the stem cutting has one node. Kresoxim-methyl, azoxystrobin, trifloxystrobin, fluoxastrobin, picoxystrobin, pyraclostrobin, dimoxystrobin, pyribencarb, metominostrobin, orysastrobin, enestrobin, pyraoxystrobin or pyrametostrobin is adhered to the stem cutting.
as §2
Assay [7] has as its system Amaranthus retroflexus. The assay can be described thus: Herbicidal activity, soil surface spray, azole-fungicide-treated stem cutting (Example 10). To be noted: 3 cm stem cutting treated with azaconazole, bitertanol or another listed azole-type fungicide, four weeks after treatment.
From the text: A 30 to 40 cm stem cutting of sugar cane is placed on a wet soil, and germination is stimulated. The stem cutting from which a bud has grown to about 1 cm is selected, and the length of the stem cutting is adjusted to be 3 cm so that the stem cutting has one node. Azaconazole, bitertanol, bromoconazole, cyproconazole, difenoconazole, diniconazole, epoxyconazole, fenbuconazole, fluquinconazole, flusilazole, flutriafol, hexaconazole, imibenconazole, ipconazole, metconazole, myclobutanil, penconazole, propiconazole, prothioconazole, simeconazole, tebuconazole, tetraconazole, triadimenol, triticonazole, fenarimol, nuarimol, pyrifenox, imazalil, oxpoconazole fumarate, pefurazoate, procloraz or triflumizole is adhered to the stem cutting. A soil is packed into a plastic pot, and seeds of Amaranthus retroflexus are seeded thereon. The stem cutting of sugar cane treated with azaconazole, bitertanol, bromoconazole, cyproconazole, difenoconazole, diniconazole, epoxyconazole, fenbuconazole, fluquinconazole, flusilazole, flutriafol, hexaconazole, imibenconazole, ipconazole, metconazole, myclobutanil, penconazole, propiconazole, prothioconazole, simeconazole, tebuconazole, tetraconazole, triadimenol, triticonazole, fenarimol, nuarimol, pyrifenox, imazalil, oxpoconazole fumarate, pefurazoate, procloraz or triflumizole is planted in the soil packed into the pot at a depth of 2 cm. […] Thereafter, the pot for a test is placed in a greenhouse.
The test system of assay [8] is Amaranthus retroflexus. The assay is described as follows: Herbicidal activity, spray above weed before planting, azole-fungicide-treated stem cutting (Example 11). To be noted: sprayed above weed, 3 cm stem cutting treated with azaconazole, bitertanol or another listed azole-type fungicide planted one week after treatment, four weeks after treatment.
Method: A soil is packed into a plastic pat, and seeds of Amaranthus retroflexus are seeded thereon. Thereafter, the pot is placed in a greenhouse, and the weed is grown.
A 30 cm to 40 cm stem cutting of sugar cane is placed on a wet soil, and germination is stimulated. The stem cutting from which a bud has grown to about 1 cm is selected, and the length of the stem cutting is adjusted to be 3 cm so that the stem cutting has one node.
as §2
In assay [9] the test system is Amaranthus retroflexus. The assay can be described thus: Herbicidal activity, soil surface spray, metalaxyl-treated stem cutting (Example 12). To be noted: 3 cm stem cutting treated with metalaxyl or metalaxyl-M, four weeks after treatment. On the procedure: A soil is packed into a plastic pot. Seeds of Amaranthus retroflexus are seeded thereon.
In assay [10] the test system is Amaranthus retroflexus. The assay is described as follows: Herbicidal activity, spray above weed before planting, metalaxyl-treated stem cutting (Example 13). To be noted: sprayed above weed, 3 cm stem cutting treated with metalaxyl or metalaxyl-M planted one week after treatment, four weeks after treatment.
Method: A soil is packed into a plastic pot, and seeds of Amaranthus retroflexus are seeded thereon. Thereafter, a pot is placed in a greenhouse, and the weed is grown.
A 30 cm to 40 cm stem cutting of sugar cane is placed on a wet soil, and germination is stimulated. The stem cutting from which a bud has grown to about 1 cm is selected, and the length of the stem cutting is adjusted to be 3 cm so that the stem cutting has one node. Metalaxyl or metalaxyl-M is adhered to the stem cutting.
as §2

For `CS(=O)(=O)NC(=O)c1cc(Oc2ccc(C(F)(F)F)cc2Cl)ccc1[N+](=O)[O-]` [fomesafen], the “herbicidal activity against Amaranthus retroflexus” value in the assay with Amaranthus retroflexus [1], in the assay on Amaranthus retroflexus [2], in the assay on Amaranthus retroflexus [3], in the assay with Amaranthus retroflexus [4], in the assay with Amaranthus retroflexus [5] and with Amaranthus retroflexus [6] was “the controlling effect on a weed can be confirmed” each time. The “herbicidal activity against Amaranthus retroflexus” value is given as “the control effect on a weed can be confirmed” in the assay with Amaranthus retroflexus [7], “the controlling effect on a weed can be confirmed” with Amaranthus retroflexus [8], “the controlling effect on a weed can be confirmed” with Amaranthus retroflexus [9] and “the controlling effect on a weed can be confirmed” in the assay on Amaranthus retroflexus [10].

These data come from patent US20140329682A1, “METHOD OF CONTROLLING WEED IN A SUGAR CANE FIELD” (SUMITOMO CHEMICAL COMPANY, LIMITED, priority 2011, published 2014).
